Test results from ChEMBL document CHEMBL1129644, “Nucleosides with a twist. Can fixed forms of sugar ring pucker influence biological activity in nucleosides and oligonucleotides?” (J Med Chem, 1996).
In brackets after ≈: the same amount, converted by molar mass.

Key:
[1] = Compound was tested for cytotoxicity against HSV-1 (herpes simplex type-1) of HFF (human foreskin fibroblasts) cells by cytopathogenic effect (CPE) inhibition assay; assay type: cell-based; conditions: HFF (human foreskin fibroblast) cells
[2] = Compound was tested for cytotoxicity against HSV-2 (herpes simplex type 2) of HFF (human foreskin fibroblasts) cells by cytopathogenic effect (CPE) inhibition assay; assay type: cell-based; conditions: HFF (human foreskin fibroblast) cells
[3] = Compound was tested for cytotoxicity against HCMV (human cytomegalovirus) of HFF(human foreskin fibroblasts) cells by cytopathogenic effect (CPE) inhibition assay; assay type: cell-based; conditions: HFF (human foreskin fibroblast) cells
[4] = Compound was tested for cytotoxicity against HSV-1 (herpes simplex type-1) of HFF (human foreskin fibroblasts) cells; assay type: cell-based; conditions: HFF (human foreskin fibroblast) cells
[5] = (§1) Compound was tested for cytotoxicity against HSV-2 (herpes simplex type-2) of HFF (human foreskin fibroblasts) cells; assay type: cell-based; conditions: HFF (human foreskin fibroblast) cells
[6] = Compound was tested for cytotoxicity against HSV-1 (herpes simplex type-1) of HFF (human foreskin fibroblasts) cells in different experiment; assay type: cell-based; conditions: HFF (human foreskin fibroblast) cells
[7] = (§2) Compound was tested for cytotoxicity against HSV-2 (herpes simplex type-2) of HFF (human foreskin fibroblasts) cells in different experiment; assay type: cell-based; conditions: HFF (human foreskin fibroblast) cells
[8] = as §2; conditions: human alphaherpesvirus 2, HFF (human foreskin fibroblast) cells
[9] = as §1; conditions: human alphaherpesvirus 2, HFF (human foreskin fibroblast) cells

SMILES | CC50 [1] [µg/mL] | CC50 [2] [µg/mL] | CC50 [3] [µg/mL] | CC50 [4] [µg/mL] | CC50 [5] [µg/mL] | CC50 [6] [µg/mL] | CC50 [7] [µg/mL] | CC50 [8] [µg/mL] | CC50 [9] [µg/mL]
Nc1ccn([C@H]2C[C@H](O)[C@@]3(O)CC23)c(=O)n1 (stereo not given in full) | 68 (≈ 305 µM) | 96 (≈ 430 µM) | 8.8 (≈ 39.4 µM) | – | – | – | – | – | –
Nc1ncnc2c1ncn2[C@H]1C[C@H](O)[C@@]2(O)CC12 (stereo not given in full) | > 100 | > 100 | > 100 | – | – | – | – | – | –
Cc1cn([C@H]2C[C@H](O)[C@@]3(O)CC23)c(=O)[nH]c1=O (stereo not given in full) | > 100 | > 100 | 63.7 (≈ 267 µM) | > 20 | > 20 | > 20 | > 20 | – | –
O=c1ccn([C@H]2C[C@H](O)[C@@]3(O)CC23)c(=O)[nH]1 (stereo not given in full) | > 100 | > 100 | > 100 | – | – | – | – | – | –
Nc1nc(O)c2ncn([C@H]3C[C@H](O)[C@@]4(O)CC34)c2n1 (stereo not given in full) | > 100 | > 100 | 64.3 (≈ 244 µM) | – | – | – | – | – | –
Cc1cn([C@@]23CC2[C@H](O)[C@@H](O)C3)c(=O)[nH]c1=O (stereo not given in full) | – | – | – | > 50 | – | > 20 | – | > 20 | > 50
Cc1cn(C2C[C@H](O)[C@@H](O)C2)c(=O)[nH]c1=O | – | – | – | > 10 | – | – | > 10 | – | –
